Tested on: Candida albicans ATCC 10231
Test: protective activity against opportunistic infections in immunosuppressed (5-FU pretreated) mice
Assay type: in vivo
Settings: for Survivors at Day 15 / Survivors at Day 8: daily for eight days with 5-FU 25 mg/kg/day i.p., female ddY mice; for Survivors at Day 15: survivors/total 15 days after infection; for Survivors at Day 8: survivors/total eight days after infection
Method: The mice were then infected with Candida albicans ATCC 10231 (1×10^5cells or more) at 24 hours after the last treatment. One control group was administered 5-FU and saline solution and a second control group received neither 5-FU nor a thymic polypeptide prior to infection with Candida albicans.

**Q.** Which results are given for “Thymosin β4: peptide containing 44 amino acid residues, isolated from calf thymus; contained in APF”?
**A.** protective effects against infection (compared with the polypeptides of Thymosin Fraction 5, thymosin α1 and thymosin β8, 5-FU immunosuppressed mice): of comparable similar magnitude; Survivors at Day 15 (dose 0.4 μg/kg/day): 6/10; Survivors at Day 8 (dose 0.4 μg/kg/day): 7/10; Survivors at Day 15 (dose 4 μg/kg/day): 5/10; Survivors at Day 8 (dose 4 μg/kg/day): 5/10; Survivors at Day 15 (dose 40 μg/kg/day): 1/10; Survivors at Day 8 (dose 40 μg/kg/day): 1/10

Source: US4388234A, “Peptide isolation” (Hoffmann-La Roche Inc., priority 1981, dated 1983)
